From publication PMC9658216, “Topical Administration of a Novel Acetylated Tetrapeptide Suppresses Vascular Permeability and Immune Responses and Alleviates Atopic Dermatitis in a Murine Model” (International Journal of Molecular Sciences, 2022)

Tests used:
NC/Nga mice [1] = assay: Dermatitis severity score in HDM (Biostir-AD)-induced AD-like skin lesions; format: in vivo; conditions: topical 100 μL/mouse daily for 4 weeks, Day 48, mean ± SD, n = 10
Procedure: (§1) To induce experimental AD-like skin lesions in mouse, we used cutaneous Biostir-AD for challenging NC/Nga mice, according to the manufacturer’s instructions. After 1 week of acclimation, AD was induced. Briefly, the dorsal part of each mouse was shaved with an electric shaver, and then the remaining hair was removed using a depilatory cream. Twice weekly for three weeks, growing hair was shaved with the electric shaver, followed by application of 150 μL of 4% sodium dodecyl sulfate to the treated area (barrier disruption). Biostir-AD (200 mg/mouse) was applied 3 h after barrier disruption. Fifty mice were divided into five groups of five mice per cage (n = 10 per group): group 1, control (Biostir-AD + vehicle (distilled water only)); group 2, 0.1% tacrolimus (Biostir-AD + Protopic (positive control)); group 3, 0.004% Ac-RLYE (Biostir-AD + 0.004% Ac-RLYE in distilled water); group 4, 0.02% Ac-RLYE (Biostir-AD + 0.02% Ac-RLYE in distilled water); and group 5, 0.1% Ac-RLYE (Biostir-AD + 0.1% Ac-RLYE in distilled water). Ac-RLYE or 0.1% tacrolimus (100 μL/mouse) was applied daily for 4 weeks. The concentration of Ac-RLYE used in the present study was determined based on the results of previous preliminary experiments (unpublished data). The mice were sacrificed after 4 weeks of Ac-RLYE treatment (Figure 2A, on Day 48). The severity of the dermatitis was measured macroscopically and scored once a week by using a previously established method based on the clinical signs and symptoms of AD, namely, erythema (hemorrhage), edema, excoriation (erosion), and scaling (dryness). The total dermatitis severity score was defined as the sum of the component scores (0, no symptoms; 1, mild; 2, moderate; 3, severe) for each mouse, ranging from 0 to 12.

filaggrin (FLG) = assay: Skin filaggrin (FLG) ELISA; format: in vivo, mouse; conditions: n = 10; for FLG level in dorsal skin: mean ± SD
Procedure: as §1, with “dorsal skin was collected from mice after 4 weeks” for “severity”, “Ac-RLYE or tacrolimus treatment and stored at −80 °C until use. The dorsal skin tissues were homogenized in RIPA lysis buffer containing a protease inhibitor and a phosphatase inhibitor and centrifuged at 13,000 rpm for 10 min at 4 °C. The supernatant” for “the dermatitis”, “collected for” for “measured macroscopically and scored once”, “protein assay” for “week by”, “Pierce™ BCA Protein Assay Kit (Thermo Fisher Scientific, Inc., Waltham, MA, USA). The level of FLG in mouse skin tissue was quantified using an ELISA kit (MyBioSource, Inc., San Diego, CA, USA) in accordance with” for “previously established method based on”, “manufacturer’s instructions.” for “clinical signs and symptoms of AD, namely, erythema (hemorrhage), edema, excoriation (erosion), and scaling (dryness). The total dermatitis severity score was defined as the sum of the component scores (0, no symptoms; 1, mild; 2, moderate; 3, severe) for each mouse, ranging from 0 to 12.”

HUVECs = assay: Immunofluorescence of ZO-1 and VE-cadherin junctions in VEGF-A-stimulated HUVECs; format: cell-based, human; conditions: HUVECs pre-treated 30 min with 0.15 nM Ac-RLYE, then 10 ng/mL VEGF-A for 1 h; confocal immunofluorescence, Image J; n = 3
Procedure: Figure 1 Ac-RLYE inhibits VEGF-A-induced junctional integrity loss in HUVECs. Cells were pre-treated for 30 min with Ac-RLYE (0.15 nM) followed by stimulation with 10 ng/mL VEGF-A (V) for 1 h. (A) Confocal images of ZO-1 and VE-cadherin. (B) Quantification of ZO-1 and VE-cadherin at contact sites between endothelial cells (n = 3). Data are represented as mean ± SD values. *** p < 0.001.
Collagenase type II (Worthington Biochemical Corporation, Lakewood, NJ) was used to isolate human umbilical vein endothelial cells (HUVECs) from umbilical cord veins. The cells were cultured on gelatin-coated plates in Medium 199 supplemented with 20% FBS, 100 U/mL penicillin–streptomycin, 3 ng/mL bFGF, and 5 U/mL heparin. Trypsinization was used to collect the cells (up to passage 7), which were then used for assays.
HUVECs were grown as a monolayer on 2% gelatin-coated cover glasses and cultured in M199 medium containing 1% FBS. The cells were pretreated with 0.15 nM Ac-RLYE for 30 min and stimulated with 10 ng/mL VEGF-A for 1 h. […] The levels of VE-cadherin and ZO-1 were quantified using Image J software.

NC/Nga mice [2] = assay: Ear thickness in HDM-induced AD model; format: in vivo, mouse; conditions: n = 10
Procedure: as §1, with “The mice were sacrificed after 4 weeks of Ac-RLYE treatment (Figure 2A, on Day 48). The severity of the dermatitis was measured macroscopically and scored once a week by using a previously established method based on the clinical signs and symptoms of AD, namely, erythema (hemorrhage), edema, excoriation (erosion), and scaling (dryness). The total dermatitis severity score was defined as the sum of the component scores (0, no symptoms; 1, mild; 2, moderate; 3, severe) for each mouse, ranging from 0 to 12.” left out
Ear thickness was measured on the first day of Ac-RLYE application and then once a week using calipers.

NC/Nga mice [3] = assay: Histological analysis (H&E) of AD-like skin lesions; format: in vivo, mouse; conditions: n = 10
Procedure: (§2) To induce experimental AD-like skin lesions in mouse, we used cutaneous Biostir-AD for challenging NC/Nga mice, according to the manufacturer’s instructions. After 1 week of acclimation, AD was induced. Briefly, the dorsal part of each mouse was shaved with an electric shaver, and then the remaining hair was removed using a depilatory cream. Twice weekly for three weeks, growing hair was shaved with the electric shaver, followed by application of 150 μL of 4% sodium dodecyl sulfate to the treated area (barrier disruption). Biostir-AD (200 mg/mouse) was applied 3 h after barrier disruption. […] The concentration of Ac-RLYE used in the present study was determined based on the results of previous preliminary experiments (unpublished data). […]
(§3) The dorsal skin tissues were isolated, fixed in 10% formalin immediately after excision from the mice, and embedded in paraffin. […] Skin samples were observed and measured with an Olympus BX53 light microscope (Olympus Corporation, Tokyo, Japan). From the histopathological findings, the severity of skin manifestations was assessed on the epidermis (hypertrophy, hyperkeratosis, and infiltration by inflammatory cells) and on the dermis (infiltration by inflammatory cells) and was expressed as the sum of the individual score grades from 0 to 3 (0, no symptoms; 1, mild; 2, moderate; 3, severe), as described previously. […]

NC/Nga mice [4] = assay: Differential cell counting of blood; format: in vivo, mouse; conditions: differential counting at Day 48; versus vehicle-treated control; n = 10
Procedure: as §1, with “48).” for “48). The severity of the dermatitis was measured macroscopically and scored once a week by using a previously established method based on the clinical signs and symptoms of AD, namely, erythema (hemorrhage), edema, excoriation (erosion), and scaling (dryness). The total dermatitis severity score was defined as the sum of the component scores (0, no symptoms; 1, mild; 2, moderate; 3, severe) for each mouse, ranging from 0 to 12.”
Whole blood samples were collected from the mice and used for analysis. […]

NC/Nga mice [5] = assay: Mast cell infiltration (toluidine blue staining); format: in vivo, mouse; conditions: Day 48, versus vehicle-treated group, n = 10
Procedure: as §2, §3

IgE = assay: Plasma IgE ELISA; format: in vivo, mouse; conditions: Day 48, topical application, versus vehicle-treated group, n = 10
Procedure: as §2
The blood samples were drawn from mice, and the plasma was separated by centrifugation at 10,000× g for 10 min at 4 °C and stored at −80 °C until tested. The plasma level of IgE was measured by ELISA according to the manufacturer’s instructions (Mouse IgE ELISA Kit, Abcam, Cambridge, UK).

[6] = system: Th1, Th2 and Th17 cytokines; assay: qRT-PCR of cytokine mRNA in AD-like skin lesions; format: in vivo, mouse; conditions: skin at Day 48, normalized to GAPDH, versus vehicle, n = 10
Procedure: as §1, with “48).” for “48). The severity of the dermatitis was measured macroscopically and scored once a week by using a previously established method based on the clinical signs and symptoms of AD, namely, erythema (hemorrhage), edema, excoriation (erosion), and scaling (dryness). The total dermatitis severity score was defined as the sum of the component scores (0, no symptoms; 1, mild; 2, moderate; 3, severe) for each mouse, ranging from 0 to 12.”
Both the ear and dorsal skin of each mouse were excised using a surgical knife, pooled, and used for RNA isolation. Total RNA was prepared using an RNA isolation kit (GeneAll® Hybrid-R™, GeneAll, Korea) following the manufacturer’s instructions. RNA was quantified using a BioTek Take3^TM Multi-Volume plate (Agilent BioTek Instruments, Winooski, VT, USA). An equal amount of total RNA was reverse-transcribed using ReverTra Ace™ qPCR RT Master Mix with gDNA Remover (Toyobo CO., LTD., Osaka, Japan) according to the manufacturer’s instructions. Real time-PCR was performed on a CFX96™ Touch Real-Time PCR System (Bio-Rad, Hercules, CA) using TB Green® Premix Ex Taq™ (Takara, Shiga, Japan). Quantification of the target gene expression was determined by the comparative […] method. The relative expression levels were determined by normalizing expression to glyceraldehyde 3-phosphate dehydrogenase (GAPDH). The level of each target gene was expressed as the relative fold change.

Compound | Dermatitis score (sum of erythema, edema, excoriation, scaling; 0-12) (NC/Nga mice [1]; 0.1% tacrolimus ointment (Protopic)) | FLG level in dorsal skin (filaggrin (FLG); 0.1% tacrolimus ointment topical daily for 4 weeks) [pg/mL] | VEGF-induced cellular junction disruption (ZO-1 and VE-cadherin at cell-cell contact sites) (HUVECs) | Dermatitis score (sum of erythema, edema, excoriation, scaling; 0-12) (NC/Nga mice [1]; 0.004% in distilled water) | Dermatitis score (sum of erythema, edema, excoriation, scaling; 0-12) (NC/Nga mice [1]; 0.02% in distilled water) | Dermatitis score (sum of erythema, edema, excoriation, scaling; 0-12) (NC/Nga mice [1]; 0.1% in distilled water) | Effect on ear thickness compared with tacrolimus (NC/Nga mice [2]; doses above 0.02%, Day 48) | Increase in ear thickness after HDM (NC/Nga mice [2]; topical 0.004-0.1% once daily for 4 weeks, dose-dependent, versus vehicle) | Infiltration of inflammatory cells in epidermis and dermis (NC/Nga mice [3]; Day 48, all Ac-RLYE-treated groups versus vehicle-treated HDM group) | Scores of hypertrophy and hyperkeratosis in epidermis (NC/Nga mice [3]; Day 48, versus vehicle-treated HDM group) | Number of leukocytes, neutrophils and eosinophils in blood (NC/Nga mice [4]) | Accumulation of mast cells in AD-like skin lesion (NC/Nga mice [5]) | Plasma IgE (IgE) | FLG level in dorsal skin (filaggrin (FLG); 0.1% Ac-RLYE topical daily for 4 weeks) [pg/mL] | Protein level of FLG versus vehicle-treated AD group (filaggrin (FLG); Ac-RLYE groups 0.004-0.1%, dose-dependent) | Expression of IFN-γ [6] | Expression of IL-17A (Th17 cytokine) [6] | Expression of Th1 cytokines IL-23 and TNF-α [6] | mRNA levels of Th2-type cytokines IL-4, IL-13, IL-31 and Th2 chemokine CCL17 [6]
C=CC[C@@H]1/C=C(\C)C[C@H](C)C[C@H](OC)[C@H]2O[C@@](O)(C(=O)C(=O)N3CCCC[C@H]3C(=O)O[C@H](/C(C)=C/[C@@H]3CC[C@@H](O)[C@H](OC)C3)[C@H](C)[C@@H](O)CC1=O)[C@H](C)C[C@@H]2OC [tacrolimus, reference compound] | 4.5 ± 2.4 | 1444.8 ± 110.5 |  |  |  |  |  |  |  |  |  |  |  |  |  |  |  |  | 
N-acetyl-Arg-Leu-Tyr-Glu [Ac-RLYE] |  |  | significantly attenuated | 7.4 ± 0.8 | 5.8 ± 2.3 | 4.5 ± 2.4 | slightly better than that of tacrolimus | significantly attenuated | less infiltration | decreased | dose-dependently lowered | reduced | significantly lowered | 1469.4 ± 105.2 | significantly restored | increased | suppressed | inhibited | remarkably inhibited
